The supplement of paper PMC10307832

These cell lines were tested with CC(C)N(CCCNC(=O)Nc1ccc(C(C)(C)C)cc1)C[C@H]1O[C@@H](n2ccc3c(N)ncnc32)[C@H](O)[C@@H]1O + CS(=O)(=O)CCNCc1ccc(-c2ccc3ncnc(Nc4ccc(OCc5cccc(F)c5)c(Cl)c4)c3c2)o1 [Lapatinib] (partner 2 µM) (assay: relative viability (nuclei count vs DMSO), 5 days (fraction); higher = more cells survive). Details: first compound 8 µM.
In short: (§1)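 Five library-drug doses in √10 steps were combined with a fixed anchor-drug dose, or a single drug was given alone, by pin tool to lung cancer cell lines in 1536-well plates the day after seeding. Nuclei were stained and counted after 5 days. Relative viability is the nuclei count in treated wells over that in vehicle wells, taken as the median of duplicate plates.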

Cell Line | relative viability
HCC-78 | 0.701
LCLC-97TM1 | 1.11
NCI-H2023 | 0.592
A-427 | 1
NCI-H460 | 0.855
NCI-H838 | 0.916
NCI-H1734 | 0.995
NCI-H596 | 1.06
NCI-H2405 | 1.09
NCI-H1395 | 0.904
201T | 1.01
NCI-H1915 | 0.87
HCC-827 | 0.158
LXF-289 | 0.821
NCI-H2347 | 0.934

What follows are cell lines tested with CC(C)=CC[C@@H](O)C1=CC(=O)c2c(O)ccc(O)c2C1=O [Shikonin] + CS(=O)(=O)N1CCN(Cc2cc3nc(-c4cccc5[nH]ncc45)nc(N4CCOCC4)c3s2)CC1 [Pictilisib] (partner 1 µM) in the same assay as above. Details: first compound 0.01 µM.
In short: as §1

Cell Line | relative viability
Calu-6 | 1.15
HCC-366 | 0.164
NCI-H1666 | 0.643
NCI-H650 | 0.946
LK-2 | 0.531
NCI-H2126 | 0.508
SK-MES-1 | 0.352
H3255 | 0.487
COR-L23 | 1.09
COR-L 105 | 0.428
IA-LM | 0.363
LOU-NH91 | 0.509
NCI-H2170 | 0.291
NCI-H3122 | 0.638
HOP-62 | 0.714
HCC-44 | 0.663
A549 | 0.746
LU99A | 0.309

Cell Line | relative viability
BEN | 0.642
HARA | 0.226
HCC-78 | 0.185
LCLC-97TM1 | 0.172
NCI-H2023 | 0.225
A-427 | 0.691
NCI-H460 | 0.357
NCI-H838 | 0.529
NCI-H1734 | 0.495
NCI-H596 | 0.341
NCI-H2405 | 0.442
NCI-H1395 | 0.603
201T | 0.621
NCI-H1915 | 0.975
HCC-827 | 1.12
LXF-289 | 0.868
NCI-H2347 | 0.701

Same assay, conditions: first compound 0.1 µM

Cell Line | relative viability
Calu-6 | 1.03
HCC-366 | 0.137
NCI-H1666 | 0.358
LK-2 | 0.546
NCI-H2126 | 0.5
SK-MES-1 | 0.392
H3255 | 0.477
COR-L23 | 0.831
COR-L 105 | 0.358
IA-LM | 0.364
LOU-NH91 | 0.544
NCI-H2170 | 0.34
NCI-H3122 | 0.643
HOP-62 | 1.09
HCC-44 | 0.835
A549 | 0.569
LU99A | 0.3

Cell Line | relative viability
BEN | 0.596
HARA | 0.527
HCC-78 | 0.234
LCLC-97TM1 | 0.143
NCI-H2023 | 0.31
A-427 | 0.915
NCI-H460 | 0.441
NCI-H838 | 0.601
NCI-H1734 | 0.551
NCI-H596 | 0.385
NCI-H2405 | 0.401
NCI-H1395 | 0.695
201T | 0.754
NCI-H1915 | 1.09
HCC-827 | 0.786
LXF-289 | 0.784
NCI-H2347 | 0.764

Same assay, conditions: first compound 0.3162 µM

Cell Line | relative viability
Calu-6 | 0.921
HCC-366 | 0.165
NCI-H1666 | 0.394
NCI-H650 | 0.965
LK-2 | 0.619
NCI-H2126 | 0.496
SK-MES-1 | 0.413
H3255 | 0.495
COR-L23 | 0.889
COR-L 105 | 0.438
IA-LM | 0.337
LOU-NH91 | 0.52
NCI-H2170 | 0.338
NCI-H3122 | 0.607
HOP-62 | 0.933
HCC-44 | 0.564
A549 | 0.644
LU99A | 0.337

Cell Line | relative viability
BEN | 0.682
HARA | 0.477
HCC-78 | 0.188
LCLC-97TM1 | 0.266
NCI-H2023 | 0.223
A-427 | 0.643
NCI-H460 | 0.357
NCI-H838 | 0.443
NCI-H1734 | 0.441
NCI-H596 | 0.422
NCI-H2405 | 0.553
NCI-H1395 | 0.584
201T | 0.669
NCI-H1915 | 1.05
HCC-827 | 1.03
LXF-289 | 0.799
NCI-H2347 | 0.582

Same assay, conditions: first compound 1 µM

Cell Line | relative viability
Calu-6 | 0.756
HCC-366 | 0.127
NCI-H1666 | 0.299
NCI-H650 | 0.845
LK-2 | 0.476
NCI-H2126 | 0.553
SK-MES-1 | 0.368
H3255 | 0.427
COR-L23 | 0.741
COR-L 105 | 0.336
IA-LM | 0.305
LOU-NH91 | 0.563
NCI-H2170 | 0.326
NCI-H3122 | 0.494
HOP-62 | 0.62
HCC-44 | 0.728
A549 | 0.488
LU99A | 0.303

Cell Line | relative viability
BEN | 0.612
HARA | 0.43
HCC-78 | 0.249
LCLC-97TM1 | 0.169
NCI-H2023 | 0.257
A-427 | 0.765
NCI-H460 | 0.375
NCI-H838 | 0.452
NCI-H1734 | 0.494
NCI-H596 | 0.4
NCI-H2405 | 0.474
NCI-H1395 | 0.652
201T | 0.796
NCI-H1915 | 0.958
HCC-827 | 0.871
LXF-289 | 0.775
NCI-H2347 | 0.573

What follows are cell lines tested with CC(C)=CC[C@@H](O)C1=CC(=O)c2c(O)ccc(O)c2C1=O [Shikonin] (assay: relative viability (nuclei count vs DMSO), 5 days (fraction); higher = more cells survive). Details: 0.01 µM.
In short: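 Only plates meeting two conditions passed: control CV below 25% and at least one doubling. Lung cancer cell lines, kept overnight at 37 °C in 1536-well plates, were pinned with five library-drug doses (not always all listed) √10 apart on vehicle-anchored plates and grown 5 days without medium change. A one-step fix, permeabilisation and Hoechst stain preceded 4× imaging and MetaXpress nuclear counting. Viability equals treated-well nuclei divided by vehicle-well nuclei, as the median over plates.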

Cell Line | relative viability
Calu-6 | 1.05
HCC-366 | 0.975
